# Results: ChEMBL document CHEMBL1765088, “5-Benzamidoisoquinolin-1-ones and 5-(ω-carboxyalkyl)isoquinolin-1-ones as isoform-selective inhibitors of poly(ADP-ribose) polymerase 2 (PARP-2)” (J Med Chem, 2011)
# Values joined by “and” are separate entries in the source; they are usually repeats but may differ in a detail not shown here. Identical values can stand only once.
# Legend:
# [1] = biological target: Poly [ADP-ribose] polymerase 2 (Mus musculus, UniProt O88554); test: Inhibition of recombinant full length mouse PARP-2 after 10 mins using [3H]NAD+ by solution-phase assay
# Sequence of Poly [ADP-ribose] polymerase 2 (O88554 whole entry): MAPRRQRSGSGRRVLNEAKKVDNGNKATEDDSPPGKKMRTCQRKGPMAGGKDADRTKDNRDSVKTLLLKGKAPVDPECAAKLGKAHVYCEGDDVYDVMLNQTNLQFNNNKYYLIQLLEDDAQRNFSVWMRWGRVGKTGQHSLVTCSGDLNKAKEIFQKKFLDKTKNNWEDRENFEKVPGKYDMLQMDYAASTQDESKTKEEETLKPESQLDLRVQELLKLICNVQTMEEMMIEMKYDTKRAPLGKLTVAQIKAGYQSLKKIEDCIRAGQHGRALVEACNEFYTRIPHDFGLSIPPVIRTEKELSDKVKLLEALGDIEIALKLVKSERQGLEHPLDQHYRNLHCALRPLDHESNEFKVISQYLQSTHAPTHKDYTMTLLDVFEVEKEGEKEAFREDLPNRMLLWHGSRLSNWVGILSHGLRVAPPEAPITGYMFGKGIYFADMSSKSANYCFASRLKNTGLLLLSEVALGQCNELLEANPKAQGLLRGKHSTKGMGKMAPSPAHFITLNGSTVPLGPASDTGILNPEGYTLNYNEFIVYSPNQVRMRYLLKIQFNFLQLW
# [2] = biological target: Poly [ADP-ribose] polymerase 1 (Homo sapiens, UniProt P09874); test: Inhibition of full length human PARP-1 after 10 mins by FlashPlate scintillation proximity assay
# Sequence of Poly [ADP-ribose] polymerase 1 (P09874 whole entry): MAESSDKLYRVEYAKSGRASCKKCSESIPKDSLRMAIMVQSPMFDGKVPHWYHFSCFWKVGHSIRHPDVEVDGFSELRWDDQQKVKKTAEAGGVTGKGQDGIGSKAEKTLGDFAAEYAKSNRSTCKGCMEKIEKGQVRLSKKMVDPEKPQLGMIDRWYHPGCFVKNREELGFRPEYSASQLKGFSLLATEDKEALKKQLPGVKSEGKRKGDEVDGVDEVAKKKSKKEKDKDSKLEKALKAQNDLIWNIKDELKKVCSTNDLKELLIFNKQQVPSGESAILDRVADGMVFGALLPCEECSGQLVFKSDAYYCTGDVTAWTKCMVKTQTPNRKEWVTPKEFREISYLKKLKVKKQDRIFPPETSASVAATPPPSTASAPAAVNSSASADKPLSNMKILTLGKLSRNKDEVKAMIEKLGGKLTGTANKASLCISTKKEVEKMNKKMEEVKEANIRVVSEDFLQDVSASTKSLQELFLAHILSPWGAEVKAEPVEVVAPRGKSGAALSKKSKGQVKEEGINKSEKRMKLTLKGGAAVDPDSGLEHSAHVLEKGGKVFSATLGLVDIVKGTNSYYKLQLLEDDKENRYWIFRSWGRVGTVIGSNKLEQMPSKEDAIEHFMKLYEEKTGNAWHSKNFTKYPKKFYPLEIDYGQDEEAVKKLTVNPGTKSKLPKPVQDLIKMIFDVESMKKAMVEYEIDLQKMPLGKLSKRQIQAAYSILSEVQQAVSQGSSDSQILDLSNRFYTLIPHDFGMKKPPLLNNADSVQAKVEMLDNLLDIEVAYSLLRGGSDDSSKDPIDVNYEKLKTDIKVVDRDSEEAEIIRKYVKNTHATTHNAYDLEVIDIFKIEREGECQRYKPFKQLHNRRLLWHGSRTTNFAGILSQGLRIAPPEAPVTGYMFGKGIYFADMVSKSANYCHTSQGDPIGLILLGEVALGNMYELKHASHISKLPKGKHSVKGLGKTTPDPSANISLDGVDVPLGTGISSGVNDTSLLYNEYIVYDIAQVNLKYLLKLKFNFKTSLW
# [3] = Selectivity ratio, ratio of IC50 for full length human PARP-1 to IC50 for recombinant full length mouse PARP-2
# [4] = Growth inhibition of human FEK4 cells after 7 days by MTS assay; conditions: FEK4, 168 h
# MDA-MB-231 = test: Growth inhibition of human MDA-MB-231 cells after 7 days by MTS assay; conditions: MDA-MB-231, 168 h
# LNCaP = test: Growth inhibition of human LNCAP cells after 7 days by MTS assay; conditions: 168 h
# HT-29 = test: Growth inhibition of human HT-29 cells after 7 days by MTS assay; conditions: HT-29, 168 h
# [5] = Selectivity for recombinant full length mouse PARP-2 over full length human PARP-1
# CT26 = test: Inhibition of mouse CT26 cell proliferation at 1 mM; type: functional
# [6] = biological target: PARP (mixed cellular PARPs); test: Inhibition of mixed PARPs from broken cell nuclei by broken nuclei assay
# [7] = biological target: PARP (mixed cellular PARPs); test: as above; remark: listed apart in the source
smiles,measurement,setting,value
O=C(O)CCc1cccc2c(=O)[nH]ccc12,IC50,[1],3 µM
O=C(Oc1cccc2c(=O)[nH]ccc12)c1ccccc1,IC50,[2],4.1 µM
same,IC50,[1],1.5 µM
Cc1cc2c(NC(=O)c3ccccc3)cccc2c(=O)[nH]1,IC50,[1],6.3 µM
O=C(Nc1cccc2c(=O)[nH]ccc12)c1ccccc1I,IC50,[1],3.2 µM
O=c1[nH]c(CCCCN2CC=C(c3ccc(F)cc3)CC2)nc2c(Cl)cccc12,IC50,[1],0.5 µM
O=C(Nc1cccc2c(=O)[nH]ccc12)c1ccc(C(F)(F)F)cc1,IC50,[1],3.3 µM
CC(C)(C)C(=O)Nc1cccc2c(=O)[nH]ccc12,Ratio IC50,[3],> 3.4
same,IC50,[4],> 200 µM
same,IC50,[2],> 100 µM
same,IC50,[1],29 µM
same,IC50,MDA-MB-231,> 200 µM
same,IC50,LNCaP,> 200 µM
same,IC50,HT-29,> 200 µM
O=C(Nc1cccc2c(=O)[nH]ccc12)c1ccc(F)cc1,IC50,[1],3.6 µM
O=C(Oc1cccc2c(O)nccc12)c1ccccc1,Ratio IC50,[3],2.75
same,Ratio,[5],60
O=C(Nc1cccc2c(=O)[nH]ccc12)C12CC3CC(CC(C3)C1)C2,IC50,[4],> 200 µM
same,IC50,[2],> 50 µM
same,IC50,[1],19.9 µM
same,IC50,MDA-MB-231,> 200 µM
same,IC50,LNCaP,42 µM
same,IC50,HT-29,> 200 µM
Cc1ccc(C(=O)Nc2cccc3c(=O)[nH]ccc23)cc1,IC50,[1],6.5 µM
Nc1cccc2c(=O)[nH]ccc12,Ratio IC50,[3],0.9
same,IC50,[4],> 200 µM
same,inhibition at 1000 µM,CT26,40%
same,IC50,[2],0.94 µM and 1 µM
same,IC50,[1],1.05 µM and 1 µM
same,IC50,MDA-MB-231,170 µM
same,IC50,LNCaP,> 200 µM
same,IC50,HT-29,> 200 µM
O=C(Nc1cccc2c(=O)[nH]ccc12)c1ccc([N+](=O)[O-])cc1,IC50,[1],1.6 µM
O=C(Nc1cccc2c(=O)[nH]ccc12)c1cccs1,IC50,[1],7 µM
Nc1cccc2c(=O)n(CCC(=O)O)ccc12,IC50,[1],1.6 µM
NC(=O)c1cccc2nc(-c3ccc(Cl)cc3)cnc12,IC50,[1],0.09 µM
O=C(Oc1cccc2c1CCNC2=O)c1ccccc1,Ratio,[5],16
O=C(O)c1cccc2c(=O)[nH]ccc12,IC50,[6],< 13 µM
same,IC50,[2],> 25 µM
same,IC50,[1],> 25 µM
same,IC50,[7],< 13 µM
O=C(Nc1cccc2c(=O)[nH]ccc12)c1ccc(Cl)cc1,IC50,[1],3.9 µM
O=C(Nc1cccc2c(=O)[nH]ccc12)c1ccccc1,IC50,[4],> 200 µM
same,IC50,[1],1.5 µM
same,IC50,MDA-MB-231,139 µM
same,IC50,LNCaP,98 µM
same,IC50,HT-29,> 200 µM
O=C(O)CNc1cccc2c(=O)[nH]ccc12,IC50,[1],0.55 µM
Cc1ccccc1C(=O)Nc1cccc2c(=O)[nH]ccc12,IC50,[1],5.6 µM
N#Cc1ccc(-c2cnc3cccc(C(N)=O)c3n2)cc1,Ratio,[5],12
O=C(Nc1cccc2c(=O)[nH]ccc12)c1ccc(I)cc1,IC50,[1],1.3 µM
O=C(Nc1cccc2c(=O)[nH]ccc12)C1CCCCC1,IC50,[4],> 200 µM
same,IC50,[2],> 80 µM
same,IC50,[1],27.9 µM
same,IC50,MDA-MB-231,> 200 µM
same,IC50,LNCaP,> 200 µM
same,IC50,HT-29,> 200 µM
O=C(O)/C=C/c1cccc2c(=O)[nH]ccc12,IC50,[1],4.7 µM
same,IC50,[7],< 11 µM
